From article PMC5623949, “Exploiting the 2-Amino-1,3,4-thiadiazole Scaffold To Inhibit Trypanosoma brucei Pteridine Reductase in Support of Early-Stage Drug Discovery” (ACS Omega, 2017)
Read-outs that look alike come from different tables or passages of the source.

What was measured:
TbPTR1 [1] = biological target: T1, TbPTR1 (Trypanosoma brucei brucei, UniProt O76290); test: biochemical; settings: for inhibition at 50 µM: 50 μM compound, read-out: % Inhibition TbPTR1 at 50 μM; for IC50: dose-response 0.001-100 μM
T1 construct: made in house
T1 sequence (O76290 1-268): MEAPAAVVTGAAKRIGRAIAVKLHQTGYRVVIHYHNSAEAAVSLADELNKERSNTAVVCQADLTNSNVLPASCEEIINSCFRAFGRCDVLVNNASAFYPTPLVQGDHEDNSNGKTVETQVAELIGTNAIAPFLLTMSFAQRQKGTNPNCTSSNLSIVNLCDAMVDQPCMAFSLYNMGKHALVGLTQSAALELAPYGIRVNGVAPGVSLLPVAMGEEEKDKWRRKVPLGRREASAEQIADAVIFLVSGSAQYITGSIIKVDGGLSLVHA

[2] = system: T. b. brucei Lister 427 bloodstream forms; test: In vitro activity against T. brucei (HTS SYBR Green I growth inhibition assay); format: cell-based, Trypanosoma brucei brucei; settings: for inhibition at 50 µM / EC50: Trypanosoma brucei; for inhibition at 50 µM: standard deviation within ±10% of the value, read-out: % Inhibition T. brucei at 50 μM; for % Antiparasitic Activity Tb brucei at 50uM: Table S1, compounds I-X
[3] = system: T. b. brucei Lister 427 bloodstream forms; test: T. brucei resazurin assay for MTX potentiation and folic acid supplementation; format: cell-based, Trypanosoma brucei brucei; settings: for EC50: Trypanosoma brucei
Experimental: T. b. brucei Lister 427 bloodstream forms were grown at 37 °C and 5% CO2 in a complete HMI-9 medium, supplemented with 10% FCS and 100 UI/mL of penicillin/streptomycin. The cultures were diluted until a cell density of 2 × 10^6/mL was reached. The efficacy of compounds against T. brucei bloodstream forms was evaluated using a modified resazurin-based assay previously described.[46] The compounds were prepared from a stock solution in 10 mM DMSO and diluted in HMI-9 (supplemented or not with 1 mM folic acid, Sigma-Aldrich) to 40 μM work solution (0.4% DMSO, with the DMSO limit in the assay being 0.4%). […] The 40 μM work solution was then used to perform serial dilutions (1:2) in a 96-well plate. Upon compound addition to the test plate, the mid-log bloodstream forms were added (100 μL) in complete HMI-9 medium (supplemented or not with 1 mM folic acid) at a final cell density of 1 × 10^4/mL in a final well volume of 200 μL with a maximum DMSO concentration of 0.2%. Following incubation for 72 h at 37 °C and 5% CO2, 20 μL of 0.5 mM resazurin solution was added, and the plates were incubated further for 4 h under the same conditions. Fluorescence was measured at 540 and 620 nm excitation and emission wavelengths, respectively, using a Synergy 2 multi-mode reader (BioTek). […] This approach requires the use of both compounds at their EC50 potency in the combination, which is impossible to be detected for compound 4m having no intrinsic antiparasitic activity as a single agent at the tested concentrations. Folic acid (1 mM) was chosen on the basis of the following experiments. The stock solution of 10 mM folic acid dissolved in NaOH solution was used to perform a dose–response curve with folic acid alone to evaluate the maximum amount we could use without compromising parasite growth due to pH modification of the media. […] The IC50 values reported are the averages of the results obtained in at least two independent experiments. Pentamidine was used as the reference drug and internal control in all assays.

hERG = biological target: T2, hERG (Homo sapiens, UniProt Q12809); design: hERG inhibition liability assay
T2 construct: gene KCNH2
T2 sequence (Q12809 whole entry): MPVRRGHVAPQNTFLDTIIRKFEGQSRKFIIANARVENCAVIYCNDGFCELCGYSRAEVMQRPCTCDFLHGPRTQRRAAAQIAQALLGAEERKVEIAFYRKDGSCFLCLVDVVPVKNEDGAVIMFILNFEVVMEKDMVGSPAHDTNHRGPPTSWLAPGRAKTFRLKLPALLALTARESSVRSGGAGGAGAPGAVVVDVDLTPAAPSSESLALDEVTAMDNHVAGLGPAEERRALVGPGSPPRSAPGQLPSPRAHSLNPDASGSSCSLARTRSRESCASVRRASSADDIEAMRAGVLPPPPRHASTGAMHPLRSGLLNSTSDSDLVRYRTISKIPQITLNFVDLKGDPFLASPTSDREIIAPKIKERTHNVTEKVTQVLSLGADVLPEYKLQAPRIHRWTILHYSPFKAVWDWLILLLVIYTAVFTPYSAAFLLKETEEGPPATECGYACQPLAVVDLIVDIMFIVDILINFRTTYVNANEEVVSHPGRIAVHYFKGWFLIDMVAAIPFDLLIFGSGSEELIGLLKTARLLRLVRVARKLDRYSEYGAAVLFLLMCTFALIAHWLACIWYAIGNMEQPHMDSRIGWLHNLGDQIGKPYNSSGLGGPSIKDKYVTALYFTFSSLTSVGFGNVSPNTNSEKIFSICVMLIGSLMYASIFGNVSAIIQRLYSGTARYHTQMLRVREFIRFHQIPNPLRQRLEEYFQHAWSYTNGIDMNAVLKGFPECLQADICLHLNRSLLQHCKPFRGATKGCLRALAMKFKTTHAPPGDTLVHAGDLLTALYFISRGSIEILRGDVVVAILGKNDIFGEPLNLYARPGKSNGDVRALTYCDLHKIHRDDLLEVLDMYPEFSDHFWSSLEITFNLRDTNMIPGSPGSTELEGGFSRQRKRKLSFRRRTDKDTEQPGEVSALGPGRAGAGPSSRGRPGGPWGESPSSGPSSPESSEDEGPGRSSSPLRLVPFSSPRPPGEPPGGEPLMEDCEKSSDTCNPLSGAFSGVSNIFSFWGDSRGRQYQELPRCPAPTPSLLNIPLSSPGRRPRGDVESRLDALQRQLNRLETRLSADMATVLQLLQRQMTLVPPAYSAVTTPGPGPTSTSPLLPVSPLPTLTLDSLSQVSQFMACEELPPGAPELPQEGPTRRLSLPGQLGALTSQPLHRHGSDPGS

CYP1A2 = biological target: T3, CYP1A2 (Homo sapiens, UniProt P05177); test: in vitro; design: cytochrome P450 isoform inhibition liability assay
T3 sequence (P05177 1-516): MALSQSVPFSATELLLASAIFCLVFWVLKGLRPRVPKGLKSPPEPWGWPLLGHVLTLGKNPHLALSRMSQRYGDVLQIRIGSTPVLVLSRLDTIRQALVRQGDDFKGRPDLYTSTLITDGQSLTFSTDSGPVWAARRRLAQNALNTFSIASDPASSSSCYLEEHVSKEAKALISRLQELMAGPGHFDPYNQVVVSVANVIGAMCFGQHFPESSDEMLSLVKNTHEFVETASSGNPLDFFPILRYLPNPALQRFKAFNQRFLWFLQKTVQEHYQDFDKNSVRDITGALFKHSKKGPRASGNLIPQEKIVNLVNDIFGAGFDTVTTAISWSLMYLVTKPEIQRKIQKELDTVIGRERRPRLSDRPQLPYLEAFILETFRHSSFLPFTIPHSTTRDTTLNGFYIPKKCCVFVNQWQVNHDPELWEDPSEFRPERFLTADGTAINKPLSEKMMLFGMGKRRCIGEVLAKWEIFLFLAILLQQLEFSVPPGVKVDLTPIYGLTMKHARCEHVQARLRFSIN

CYP2C19 = CYP2C19 (Homo sapiens, UniProt P33261); test: in vitro; design: cytochrome P450 isoform inhibition liability assay
CYP2C19, sequence (P33261 whole entry, canonical isoform): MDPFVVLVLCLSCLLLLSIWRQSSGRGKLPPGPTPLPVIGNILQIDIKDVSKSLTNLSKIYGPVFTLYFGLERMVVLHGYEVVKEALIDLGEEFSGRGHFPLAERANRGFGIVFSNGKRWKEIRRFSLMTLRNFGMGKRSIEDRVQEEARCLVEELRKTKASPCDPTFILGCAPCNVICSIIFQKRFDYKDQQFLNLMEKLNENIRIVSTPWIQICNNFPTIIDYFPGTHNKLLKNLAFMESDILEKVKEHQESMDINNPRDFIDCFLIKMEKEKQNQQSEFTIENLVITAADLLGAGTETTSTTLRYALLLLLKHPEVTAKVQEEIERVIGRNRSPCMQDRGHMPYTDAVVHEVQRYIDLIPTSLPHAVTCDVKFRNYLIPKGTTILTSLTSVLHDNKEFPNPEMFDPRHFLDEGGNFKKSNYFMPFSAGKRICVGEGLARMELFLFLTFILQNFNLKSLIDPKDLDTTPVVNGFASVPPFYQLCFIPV

CYP2C9 = CYP2C9 (Homo sapiens, UniProt P11712); test: in vitro; design: cytochrome P450 isoform inhibition liability assay
CYP2C9, sequence (P11712 whole entry, canonical isoform): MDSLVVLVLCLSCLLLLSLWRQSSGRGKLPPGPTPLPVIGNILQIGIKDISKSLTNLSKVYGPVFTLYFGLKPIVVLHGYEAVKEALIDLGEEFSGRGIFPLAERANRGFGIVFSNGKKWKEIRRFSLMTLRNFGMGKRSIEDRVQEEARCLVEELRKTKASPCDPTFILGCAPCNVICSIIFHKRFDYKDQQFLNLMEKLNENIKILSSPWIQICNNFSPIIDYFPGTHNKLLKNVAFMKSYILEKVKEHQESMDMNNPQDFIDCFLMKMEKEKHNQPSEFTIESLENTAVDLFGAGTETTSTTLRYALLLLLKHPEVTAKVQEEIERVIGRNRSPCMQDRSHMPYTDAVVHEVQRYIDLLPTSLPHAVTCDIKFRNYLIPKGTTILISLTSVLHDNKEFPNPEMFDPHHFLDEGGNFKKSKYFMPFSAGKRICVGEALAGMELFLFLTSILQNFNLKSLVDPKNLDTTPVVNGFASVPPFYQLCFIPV

CYP2D6 = CYP2D6 (Homo sapiens, UniProt P10635); test: in vitro; design: cytochrome P450 isoform inhibition liability assay
CYP2D6, sequence (P10635 whole entry, canonical isoform): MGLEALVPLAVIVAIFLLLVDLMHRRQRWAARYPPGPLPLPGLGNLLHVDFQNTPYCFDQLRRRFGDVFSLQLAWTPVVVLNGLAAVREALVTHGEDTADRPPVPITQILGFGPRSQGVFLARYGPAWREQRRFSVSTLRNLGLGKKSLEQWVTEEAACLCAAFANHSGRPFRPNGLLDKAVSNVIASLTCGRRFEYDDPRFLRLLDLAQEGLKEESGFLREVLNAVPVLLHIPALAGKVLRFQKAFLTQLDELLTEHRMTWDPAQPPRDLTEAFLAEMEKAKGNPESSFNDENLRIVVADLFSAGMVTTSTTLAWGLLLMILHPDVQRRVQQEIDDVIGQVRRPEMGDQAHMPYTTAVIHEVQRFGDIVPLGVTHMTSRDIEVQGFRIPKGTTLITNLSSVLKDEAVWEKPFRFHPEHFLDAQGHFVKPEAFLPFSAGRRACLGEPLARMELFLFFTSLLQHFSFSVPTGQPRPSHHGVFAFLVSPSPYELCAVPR

CYP3A4 = CYP3A4 (Homo sapiens, UniProt P08684); test: in vitro; design: cytochrome P450 isoform inhibition liability assay
CYP3A4, sequence (P08684 whole entry, canonical isoform): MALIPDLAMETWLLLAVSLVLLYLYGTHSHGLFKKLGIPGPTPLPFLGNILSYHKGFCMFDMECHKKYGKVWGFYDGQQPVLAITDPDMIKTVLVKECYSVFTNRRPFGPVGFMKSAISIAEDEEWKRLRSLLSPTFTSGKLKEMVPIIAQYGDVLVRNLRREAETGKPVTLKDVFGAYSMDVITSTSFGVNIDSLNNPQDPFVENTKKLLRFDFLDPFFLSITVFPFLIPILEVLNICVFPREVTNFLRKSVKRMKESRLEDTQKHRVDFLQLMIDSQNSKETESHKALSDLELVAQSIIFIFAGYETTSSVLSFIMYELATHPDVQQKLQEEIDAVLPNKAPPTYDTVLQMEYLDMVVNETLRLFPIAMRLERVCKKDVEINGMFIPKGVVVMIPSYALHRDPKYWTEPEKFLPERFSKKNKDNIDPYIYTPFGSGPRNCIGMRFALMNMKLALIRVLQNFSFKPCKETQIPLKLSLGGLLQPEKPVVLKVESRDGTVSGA

786-O = test: cells; design: mitochondrial toxicity in 786-O renal carcinoma cells; settings: Homo sapiens, 786-0; mitochondrial toxicity
in vitro [4] = test: in vitro; design: cytotoxicity, per cent cell growth of A549 cells; settings: human, a549 cells; read-out: % cell growth A549 at 10uM
in vitro [5] = test: in vitro; design: cytotoxicity, per cent cell growth of WI-38 fibroblasts; settings: human, wi-38 cells; read-out: % cell growth W1-38 at 10uM
[6] = system: T. b. brucei Lister 427 bloodstream forms; design: method as in PMID 27175479, PMID 27703008, PMID 18557814; settings: no folate supplementation; read-out: reported EC50 T. brucei with no folate supplementation; cited from earlier work
mammalian cells = test: Toxicity against mammalian cells (Table S1); format: cell-based; settings: read-out: IC50 vs mam.cells
TbPTR1 [7] = biological target: T1, TbPTR1; test: TbPTR1 direct enzyme inhibition assay for compounds I-X (Table S1); format: biochemical; settings: for inhibition at 50 µM: 10 min, pH 6, 50 µM compound; for Ki: competitive inhibition mechanism assumed
Experimental: (b) PTR1 Enzyme inhibition. Compounds ICX were tested following the direct assay. The samples were incubated for
10 minutes at 30 °C, in buffer containing 50 mM Na citrate pH 3.7, TbPTR1, BH2 20 μM. (Dawson et al. Mol.
Microbiol. 2006, 61 (6), 1457–1468). Reaction start with NADPH. Compound concentrations depend on solubility and
ranged between 10C300 μM. Ki was calculated assuming a competitive inhibition mechanism.

In the case of `Nc1nnc(NCc2cccs2)s1` [4c], the inhibition at 50 µM (TbPTR1 [1]) is reported as 50.6 ± 2.6%, the IC50 (TbPTR1 [1]) is reported as 112 µM and the inhibition at 50 µM [2] is reported as under 0%. For the same molecule, the “antiparasitic effect as single agent” value ([3]; compound alone, 4m at 50 μM) was “low T. brucei cell inhibitory activity”, the inhibition at 10 µM (hERG) was 87.3 ± 5.7% and the inhibition at 10 µM (CYP1A2) was -3.2 ± 2.9%. For the same molecule, the inhibition at 10 µM (CYP2C19) was -13.9 ± 18%, the inhibition at 10 µM (CYP2C9) was -7.7 ± 4.7% and the inhibition at 10 µM (CYP2D6) was 27.4 ± 5.7%. The inhibition at 10 µM (CYP3A4) was -2.6 ± 4.5%, the inhibition at 10 µM (786-O) was 4.8 ± 2.9% and the viability at 10 µM (in vitro [4]) was 142 ± 13.8%. It also gave a viability at 10 µM (in vitro [5]) of 96.3 ± 7.6%.
For `CN(Cc1cnc2nc(N)nc(N)c2n1)c1ccc(C(=O)N[C@@H](CCC(=O)O)C(=O)O)cc1` [MTX, methotrexate, reference compound], the “effect of 1 mM folic acid on T. b. brucei growth inhibition” value ([3]; 1 mM folic acid, MTX alone or equimolar 4m + MTX) is listed as “reduce the antiparasitic activity”, the EC50 ([3]; media supplemented with 9 μM folic acid, read-out: EC50 T. brucei, single agent) is listed as 35 ± 3 µM and the EC50 [6] is listed as 0.012 µM.
`N=C(N)c1ccc(OCCCCCOc2ccc(C(=N)N)cc2)cc1` [Pentamidine, reference compound] showed an EC50 ([2]; read-out: EC50 T. b. brucei (reference compound, SYBR Green assay)) of 0.0038 ± 0.00048 µM and an EC50 ([3]; read-out: average EC50 T. brucei (reference drug, resazurin assay)) of 0.00228 ± 0.00118 µM.
In the case of `Nc1nnc(CCCl)s1` [I], the “% Antiparasitic Activity Tb brucei at 50uM” value [2] is reported as 90% and the IC50 (mammalian cells) is reported as 4.2 ± 0.4 µM.
In the case of `Nc1nnc(-c2ccc3[nH]nnc3c2)s1` [IV], the “% Antiparasitic Activity Tb brucei at 50uM” value [2] is reported as 67%, the EC50 ([2]; Table S1, read-out: EC50 T. b. brucei (compounds I-IV)) is reported as 170 µM and the inhibition at 50 µM (TbPTR1 [7]) is reported as 10%. It also gave a Ki (TbPTR1 [7]) of 88 µM and an IC50 (mammalian cells) of 51.5 µM.
In the case of `Nc1nnc(-c2cnccc2N)s1` [III], the “EC50 T. b. brucei (compounds I-IV)” value ([2]; Table S1) is reported as “not detectable”, the inhibition at 50 µM (TbPTR1 [7]) is reported as 15% and the Ki (TbPTR1 [7]) is reported as 53 µM. It also gave an IC50 (mammalian cells) of over 50 µM.
With `Nc1nnc(CCC(=O)c2cccs2)s1` [3k] the inhibition at 50 µM (TbPTR1 [1]) was 26 ± 0.7%, the IC50 (TbPTR1 [1]) was over 70 µM and the inhibition at 50 µM [2] was 60.7%. For the same molecule, the inhibition at 50 µM (TbPTR1 [7]) was 18%, the Ki (TbPTR1 [7]) was 48 µM and the IC50 (mammalian cells) was over 50 µM. It also gave an inhibition at 10 µM (hERG) of 0.1 ± 6.4%, an inhibition at 10 µM (CYP1A2) of 4.9 ± 1.4% and an inhibition at 10 µM (CYP2C19) of -3.4 ± 15.5%. The inhibition at 10 µM (CYP2C9) was -10.5 ± 2.1%, the inhibition at 10 µM (CYP2D6) was -20.6 ± 3.1% and the inhibition at 10 µM (CYP3A4) was 10.3 ± 7.8%. For the same molecule, the inhibition at 10 µM (786-O) was -5.2 ± 3.9%, the viability at 10 µM (in vitro [4]) was 131 ± 2.8% and the viability at 10 µM (in vitro [5]) was 92 ± 9.7%.
